Results published in patent US12514852B2 (CINDOME PHARMA, INC., priority 2018, dated 2026).

How the values were obtained:
beagle dogs [1] = assay: Dog cardiovascular study, QTc, d4-domperidone capsules (Example 3); type: in vivo; settings: male dogs; for QTc Percent Change Segment 1 (0-6 hours) / QTc Percent Change Segment 2 (7-24 hours) / QTc change Segment 1 (0-6 hours) / QTc change Segment 2 (7-24 hours): vs time-matched control; for Duration of Effect (hours post dose): QTc
Procedure: Oral suspensions were administered via gavage for comparison purposes. […]
One animal/treatment was dosed each week with at least a 3-day washout period between administrations until each animal received all treatments. See, Table 5. The same 5 animals received all treatments according to a Latin square design with at least a 3-day washout between treatments. Body temperature, blood pressure, heart rate, and the electrocardiogram (ECG) were monitored continuously for at least 2 hours prior to dosing and for at least 24 hours post dose.
Three days prior to the study, the animals were continuously monitored for at least 24 hours for body temperature and cardiovascular endpoints while on the stock colony (10 days prior to the first administration). […] The first 24 hours of the data were used in the calculation of the QTc interval. Body temperature, blood pressure, heart rate (derived from blood pressure and ECG), and the ECG were monitored continuously from at least 2 hours predose until at least 24 hours post dose. Data were collected and analyzed in 1-minute intervals and are reported in 15-minute intervals. The QTc interval was calculated using a procedure based on the method described by Spence (“The heart rate corrected QT interval of conscious beagle dogs: a formula based on analysis of covariance,” Toxicol Sci, 1998; 45:247 258) and modified by Miyazaki and Tagawa (“Rate-correction technique for QT interval in long term telemetry ECG recording in beagle dogs,” Exp. Anim., 2002; 51:465 475). Blood samples (approximately 1 mL) were collected via jugular vein and 8 and 24 hours post dose to confirm exposure.
Table 6 indicates the change (% and ms) from the appropriate time-matched control for each d4-domperidone treatment.

beagle dogs [2] = assay: Dog cardiovascular study, QTc, non-deuterated domperidone by gavage (Example 3); type: in vivo; settings: for QTc Maximum % Change / Time of QTc Maximum % Change / QTc Percent Change Segment 1 (0-6 hours) / QTc Percent Change Segment 2 (7-24 hours) / QTc change Segment 1 (0-6 hours) / QTc change Segment 2 (7-24 hours) / QTcVdW increase (Van de Water formula) / Duration of Effect (hours post dose): beagle dogs; for QTc Percent Change Segment 1 (0-6 hours) / QTc Percent Change Segment 2 (7-24 hours) / QTc change Segment 1 (0-6 hours) / QTc change Segment 2 (7-24 hours): vs time-matched control; for Duration of Effect (hours post dose): QTc
Procedure: Oral suspensions were administered via gavage for comparison purposes.
USP. The d4-domperidone formulation was Formulation A, Example 1. […] One animal/treatment was dosed each week with at least a 2-day washout period between administrations until each animal received all treatments. The same 4 animals received treatments according to a Latin square design. Systolic blood pressure, diastolic blood pressure, heart rate and Lead II electrocardiogram were continuously recorded. The measurements started 1.5 hrs prior to the dose administration and all parameters were continuously recorded 24 hrs following the end of dosing of the last animal.
The individual animal correction (QTcVdW) was calculated using Van de Water formula.

in vivo = settings: male, Beagle, dog, plasma, po, 1 mg/kg

[2H]c1c([2H])c([2H])c2c([nH]c(=O)n2CCCN2CCC(n3c(=O)[nH]c4cc(Cl)ccc43)CC2)c1[2H] [d4-domperidone, 1-{3-[4-(5-chloro-2-oxo-2,3-dihydro-1H-1,3-benzodiazol-1-yl)piperidin-1yl]propyl}-2,3-dihydro(4,5,6,7-D4)-1H-1,3-benzodiazol-2-one]
QTc Maximum % Change (beagle dogs [1]; 20 mg capsule): 4%
Time of QTc Maximum % Change (beagle dogs [1]; 20 mg capsule): 3.5 h
QTc Percent Change Segment 1 (0-6 hours) (beagle dogs [1]; 20 mg capsule): +1%
QTc Percent Change Segment 2 (7-24 hours) (beagle dogs [1]; 20 mg capsule): +0%
QTc change Segment 1 (0-6 hours) (beagle dogs [1]; 20 mg capsule): 3 ms
QTc change Segment 2 (7-24 hours) (beagle dogs [1]; 20 mg capsule): 1 ms
Time of QTc Maximum % Change (beagle dogs [1]; 110 mg capsule): 5 h
QTc Percent Change Segment 1 (0-6 hours) (beagle dogs [1]; 110 mg capsule): +5%
QTc Percent Change Segment 2 (7-24 hours) (beagle dogs [1]; 110 mg capsule): +1%
QTc change Segment 1 (0-6 hours) (beagle dogs [1]; 110 mg capsule): 12 ms
QTc change Segment 2 (7-24 hours) (beagle dogs [1]; 110 mg capsule): 2 ms
QTc Maximum % Change (beagle dogs [1]; 110 mg capsule, statistically significant): 10%
Time of QTc Maximum % Change (beagle dogs [1]; 385 mg capsule): 6 h
QTc Percent Change Segment 1 (0-6 hours) (beagle dogs [1]; 385 mg capsule): +8%
QTc Percent Change Segment 2 (7-24 hours) (beagle dogs [1]; 385 mg capsule): +6%
QTc change Segment 1 (0-6 hours) (beagle dogs [1]; 385 mg capsule): 17 ms
QTc change Segment 2 (7-24 hours) (beagle dogs [1]; 385 mg capsule): 13 ms
QTc Maximum % Change (beagle dogs [1]; 385 mg capsule, statistically significant): 13%
Duration of Effect (hours post dose) (beagle dogs [1]; 20 mg capsule): 1.5-12 hours post dose
Duration of Effect (hours post dose) (beagle dogs [1]; 110 mg capsule): 0.5-12 hours post dose

O=c1[nH]c2ccccc2n1CCCN1CCC(n2c(=O)[nH]c3cc(Cl)ccc32)CC1 [domperidone, 5-chloro-1-(1-[3-(2-oxo-2,3-dihydro-1H-benzo[d]imidazol-1-yl)propyl]piperidin-4-yl)-1H-benzo[d]imidazol-2(3H)-one]
QTc Maximum % Change (beagle dogs [2]; 1 mg/kg gavage): 6%
Time of QTc Maximum % Change (beagle dogs [2]; 1 mg/kg gavage): 2 h
QTc Percent Change Segment 1 (0-6 hours) (beagle dogs [2]; 1 mg/kg gavage): +6%
QTc Percent Change Segment 2 (7-24 hours) (beagle dogs [2]; 1 mg/kg gavage): +2%
QTc change Segment 1 (0-6 hours) (beagle dogs [2]; 1 mg/kg gavage): 13 ms
QTc change Segment 2 (7-24 hours) (beagle dogs [2]; 1 mg/kg gavage): 4 ms
Time of QTc Maximum % Change (beagle dogs [2]; 5 mg/kg gavage): 2 h
QTc Percent Change Segment 1 (0-6 hours) (beagle dogs [2]; 5 mg/kg gavage): +11%
QTc Percent Change Segment 2 (7-24 hours) (beagle dogs [2]; 5 mg/kg gavage): +7%
QTc change Segment 1 (0-6 hours) (beagle dogs [2]; 5 mg/kg gavage): 23 ms
QTc change Segment 2 (7-24 hours) (beagle dogs [2]; 5 mg/kg gavage): 15 ms
QTc Maximum % Change (beagle dogs [2]; 5 mg/kg gavage, statistically significant): 11%
QTcVdW increase (Van de Water formula) (beagle dogs [2]; 5 mg/kg): up to 23 msec
Time of QTc Maximum % Change (beagle dogs [2]; 20 mg/kg gavage): 2 h
QTc Percent Change Segment 1 (0-6 hours) (beagle dogs [2]; 20 mg/kg gavage): +10%
QTc Percent Change Segment 2 (7-24 hours) (beagle dogs [2]; 20 mg/kg gavage): +7%
QTc change Segment 1 (0-6 hours) (beagle dogs [2]; 20 mg/kg gavage): 21 ms
QTc change Segment 2 (7-24 hours) (beagle dogs [2]; 20 mg/kg gavage): 16 ms
QTc Maximum % Change (beagle dogs [2]; 20 mg/kg gavage, statistically significant): 10%
QTcVdW increase (Van de Water formula) (beagle dogs [2]; 20 mg/kg): ≤ 21 ms
effect on QTc change, lower doses of non-deuterated formulation compared to higher doses of deuterated formulation (beagle dogs [2]; FIGS. 9 and 10, beagle dogs, in words): greater effect on QTc change
Duration of Effect (hours post dose) (beagle dogs [2]; 1 mg/kg gavage): 1-2 hours post dose
Duration of Effect (hours post dose) (beagle dogs [2]; 5 mg/kg gavage): 0.5-6 hours post dose
Duration of Effect (hours post dose) (beagle dogs [2]; 20 mg/kg gavage): 0.5-4 hours post dose
MRT last (in vivo): 5 h
